We go through one compound from publication PMC12172326 (Journal of Biomedical Science, 2025).

The viability is a read-out of living cells in per cent, often relative to untreated cells.

One data set deals with RAW 264.7 cells. Briefly: LPS-induced inflammation in RAW 264.7 cells (viability, nitrite, TNF-α). The conditions noted are these: RAW 264.7, LPS 20 ng/mL, 24 h, p < 0.05. In kind it is cell-based, mouse. The protocol:
(§1) RAW 264.7 cell culture: RAW 264.7 cells were obtained from ATCC (Manassas, VA, USA) and grown in Dulbecco’s modified Eagle’s (DMEM), high glucose, GlutaMAX™ media supplemented with 10% FBS (ThermoFisher Scientific, Asheville, NC, USA). Cells were maintained at 37 °C and 5% CO2, were propagated as described by ATCC guidelines, and were cultured as previously communicated. […] One hour later, cells were challenged with lipopolysaccharide (LPS) (20 ng/ml, E. Coli O55:B5, Sigma, St Louis, MO, USA; Cat # L4005). This LPS concentration was selected from pilot studies to provide a submaximal inflammatory insult. Twenty-four hours later, culture media was collected to quantify cell viability (CellTiter 96® Aqueous One Solution Cell Proliferation Assay kit (MTS); Promega, Madison, WI, USA, Cat # G3580), secreted TNF-α protein (ELISA MAX™ Deluxe Set Mouse TNF-α, BioLegend, CA, USA; Cat # 430915) and nitrite (Griess Reagent System, Promega, Madison, WI, USA; Cat # G2930).

Assay in data set [1]: as above
In kind it is cell-based, mouse. The following applies: mouse, RAW 264.7 cells, RAW 264.7, 0.6 to 60 μM, LPS 20 ng/mL, MTS, read-out: cellular viability. The protocol: as §1

The test system of data set [2] is mice subjected to controlled cortical impact (CCI) TBI. The data set can be described thus: CCI TBI in mice: behavioral assessment. It counts as in vivo, mouse. The following applies: for CCI-induced asymmetry, elevated body swing test: 1 week post injury; for home cage activity during the initial 11 h following CCI: dark phase; for CCI-induced reduction in brake time (gait): left hind limb, 1 week after injury. The protocol:
For behavioral analyses, mice were assessed for spatial memory, gait function, motor coordination/balance function and home cage activity. The animals were subsequently evaluated for cellular changes using histology and immunohistochemistry after euthanasia.
In order to develop a controlled cortical impact (CCI) model of TBI, mice were anesthetized with 2.5% 2,2,2-tribromoethanol (Avertin, 400 mg/kg, I.P.) (Sigma, St. Louis, MO, USA) and placed in a stereotaxic frame (Kopf Instruments, Tujunga, CA, USA). A 4 mm craniotomy was performed under sterile procedures; the craniotomy point was selected midway between the lambda and bregma sutures, and laterally midway between the central suture and the temporalis muscle. The skull fragment was then carefully removed without disruption of the underlying dura on the right side of the head. Before injury, the tip of the impactor was angled and kept perpendicular to the exposed cortical surface. The mouse CCI instrument consisted of an electromagnetic impactor, Impact One (Leica Biosystems Inc., Buffalo Grove, IL, USA) that allows independent manipulation of injury severity by adjusting the contact duration and velocity of a metal impactor and the depth of cortical deformation. In these experiments, the contact velocity was set at 5.0 m/s, the dwell time was set at 0.2 s, and the deformation depth was set at 1.5 mm to produce a moderate TBI. The injury site was cleaned and dried by use of sterile cotton tipped applicators prior to suturing the wound. During surgery and recovery, the body temperature of all animals was maintained at 36–37 °C by using a heating pad.
Behavioral tests were conducted 1 week and 2 weeks post the CCI/sham procedure, to evaluate motor function and coordination differences between groups, and to compare with data performed 1 week prior to either procedure. All behavioral tests were conducted during the animals’ day light cycle; home cages were moved to behavioral rooms at least 1 h before testing.
Home cage activity monitoring was automatically and non-intrusively monitored using the digital individually ventilated cage system (DVC™; Tecniplast). Mice were individually housed, and their activity was tracked for 3 days before CCI/sham and 7 days after CCI/sham procedures.
Beam Walking Test (BWT) was used to evaluate CCI-induced impairments in motor coordination. Mice have an intrinsic preference for a darkened enclosed environment, as compared to an open bright field. Each mouse was placed in a darkened one-side-open cube box for 2 min for habituation and then was brought to the other (light) end of the beam, to start the trial. Two beams were used in this study with the following dimensions: 0.6 cm or 1.2 cm (width) × 91 cm (length). The time taken for each mouse to traverse the beam to reach the dark cube box and the ‘immobility time’ spent between the moment a mouse was initially placed on the beam and it started walking were recorded. Two trials were recorded for each animal with the 1.2 cm-width beam, and an additional two trials with the 0.6 cm-width were subsequently recorded. The mean times to traverse the beam and the immobility times were calculated, and a plot was generated to evaluate treatment effects; these times were then used for statistical analysis.
Gait analysis was employed to assess gait parameters following a specific protocol provided by the DigiGait manufacturer (Mouse Specifics, Inc., Framingham, MA, USA). The study tracked gait function at three time points: baseline, 1-week prior to CCI (PRE), and 1- and 2-weeks post-CCI. At the beginning of the trial, mice were brought to the test chamber for habituation to the new environment for 2 min, and then were given a 1-min run at 5 cm/sec before a 1-min break. […] Videos were assessed using DigiGait software to evaluate parameters that included stride duration, length, paw angle, and stance for all four limbs, following Mouse Specifics, Inc.'s procedures. […]

The conditions of data set [3]: human; cited from earlier work.
A short description of data set [4]: ex vivo stability in mouse plasma. It counts as in vitro ADME. The following applies: 100 μg/ml, room temperature, 0-180 min. The protocol: An ex vivo evaluation of drug stability was conducted in mouse and human plasma samples (WuXi AppTec, Shanghai, China). […] Samples were, thereafter, incubated at room temperature for 0, 15, 30, 60, 120, and 180 min before immediate drug extraction. […] Extraction was performed by adding ethyl acetate containing the internal standard (donepezil—known to undergo first-pass hepatic metabolism) to the spiked sample (100 μL), vortexed for 1 min, and centrifuged at 13,000 rpm, 4 °C for 10 min. The supernatant was used for LC–MS/MS analysis.
LC–MS/MS analysis was performed with a Vanquish Flex UHPLC (Thermo Scientific) and a Orbitrap Exploris 240 mass spectrometer (Thermo Scientific). Samples were separated on a C18 UHPLC column (100 mm × 2.1 mm, 3 μm; Thermo Scientific). The mobile phase A for LC separation was 0.1% formic acid and the mobile phase B was 0.1% formic acid in methanol. The chromatography gradient was designed for a linear increase from 5% B in 1 min, 5% B to 95% B in 8 min, 95% B in 3 min, and 5% B in 3 min. The flow rate was maintained at 0.3 mL/min. Mass spectra were acquired using the data-dependent Top 4 MS2 (ddMS2) method with a mass scan (100–1000 m/z) and 120,000 MS resolution.

Where [5] appears, read: high dose, initial 5 min on Day 2, 1 week after CCI, vs CCI + Vehicle.
Where [6] appears, read: high dose, vs CCI + vehicle, p < 0.05.
Where [7] appears, read: low dose, p < 0.05 vs CCI + Vehicle.

Consider `Nc1cccc2c1C(=S)N(C1CCC(=O)NC1=O)C2=O` (stereo not shown) [3-MP, 3-monothiopomalidomide], for which, in the data set on RAW 264.7 cells, the “concentration significantly reducing LPS-induced TNF-α” value is not below 30 µM and the “concentration significantly reducing LPS-induced nitrite” value was not below 10 µM. Further, the viability at 24 h in data set [1] was more than 90%. The “CCI-induced elevation of swing duration CV (gait)” value in data set [2] (both low and high doses, p < 0.05 vs CCI + Vehicle) is on record as “significantly reduced”. Further, in data set [2] (high dose), the “CCI-induced asymmetry, elevated body swing test” value is listed as “trend towards normalization”. The “home cage activity during the initial 11 h following CCI” value in data set [2] (high dose, vs CCI + vehicle) was “did not reach statistical significance”. The “discrimination index (DI) of distance traveled” value in data set [2] (high dose, initial 5 min, vs CCI + Vehicle) is given as “substantially higher”. For the same compound, in data set [2] (setting [5]), the “ambulatory time in the center zone, novelty-dependent exploration test” value is on record as “significantly lower” and the “distance traveled, novelty-dependent exploration test” value is recorded as “significantly lower”. In addition, in data set [2] (high dose, p < 0.05), the “CCI-induced reduction in brake time (gait)” value is “significantly alleviated”. Also, in data set [2] (setting [6]), the “discrimination index (DI) of duration in the center” value is listed as “significantly higher” and the “home cage activity on the day after CCI” value is “significantly higher”. Besides, the “lower home cage activity 24 h later (night + 1)” value in data set [2] (low dose and high dose, vs CCI + vehicle, p < 0.05) is “significantly mitigated”. In data set [2] (setting [7]), the “CCI-induced asymmetry, elevated body swing test” value is given as “notably reduced” and the “paw angle impairment (gait)” value is “mitigated”. Further, the “home cage activity during the initial 11 h following CCI” value in data set [2] (low dose, vs CCI + vehicle, p < 0.05) was “notably higher”. In data set [2] (low dose), the “CCI-induced reduction in brake time (gait)” value is listed as “trend towards improvement”. Besides, in data set [3], the “stability in ex vivo plasma and liver homogenate samples” value was “relatively stable”. For the same compound, the “ex vivo stability in mouse plasma” value in data set [4] is “stable”.
